# From US6410486B1 (priority 1997, dated 2002)
# Like-named read-outs stand apart in the source and are kept apart here.
# Tested on: Pyricularia oryzae
# Type: in vivo
# Settings: root application as in Use Example 2, untreated control 80%
smiles,measurement,setting,value
"CC(NC(=O)C(C#N)C1CC1)c1ccc(Cl)cc1 (centres unmarked) [I.1, N-(4′-Chlorophenyl)ethyl-1-cyclopropyl-1-cyanoacetamide]",% infestation of leaves after application of an aqueous active compound preparation containing . . . ppm,10 ppm,20%
same,% infestation of leaves after application of an aqueous active compound preparation containing . . . ppm,50 ppm,5%
